Tests used:
Assay in all cases: relative viability (nuclei count vs DMSO), 5 days (fraction); higher = more cells survive
[1] = compound: CC(C)=CC[C@@H](O)C1=CC(=O)c2c(O)ccc(O)c2C1=O [Shikonin] + COc1cc2c(Oc3ccc(NC(=O)C4(C(=O)Nc5ccc(F)cc5)CC4)cc3F)ccnc2cc1OCCCN1CCOCC1 [Foretinib] (partner 0.25 µM)
How it was run: (§1)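 Relative viability divides the nuclei count in treated wells by that in vehicle wells. Lung cancer cell lines were seeded in 1536-well plates, dosed by pin tool the next day, and fixed and stained after 5 days in one step with final 0.05% Triton X-100, 1% formaldehyde and 1 ug/ml Hoechst. Dosing was a single drug or a fixed anchor-drug dose plus five library-drug doses (not always all listed) in √10 steps, and values are medians of duplicate plates imaged at 4×.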

[2] = compound: CC(C)N(CCCNC(=O)Nc1ccc(C(C)(C)C)cc1)C[C@H]1O[C@@H](n2ccc3c(N)ncnc32)[C@H](O)[C@@H]1O + CC(=O)Nc1cccc(-n2c(=O)n(C3CC3)c(=O)c3c(Nc4ccc(I)cc4F)n(C)c(=O)c(C)c32)c1 [Trametinib] (partner 0.02 µM)
How it was run: as §1

[3] = compound: CC(C)=CC[C@@H](O)C1=CC(=O)c2c(O)ccc(O)c2C1=O [Shikonin] + C[C@@H](Oc1cc(-c2cnn(C3CCNCC3)c2)cnc1N)c1c(Cl)ccc(F)c1Cl [Crizotinib] (partner 1 µM)
How it was run: as §1

[4] = compound: CC(C)N(CCCNC(=O)Nc1ccc(C(C)(C)C)cc1)C[C@H]1O[C@@H](n2ccc3c(N)ncnc32)[C@H](O)[C@@H]1O + CS(=O)(=O)N1CCN(Cc2cc3nc(-c4cccc5[nH]ncc45)nc(N4CCOCC4)c3s2)CC1 [Pictilisib] (partner 1 µM)
How it was run: as §1

Cell Line	relative viability ([1]; first compound 0.01 µM)	relative viability ([1]; first compound 0.1 µM)	relative viability ([1]; first compound 0.3162 µM)	relative viability ([1]; first compound 1 µM)	relative viability ([2]; first compound 0.08 µM)	relative viability ([2]; first compound 0.253 µM)	relative viability ([2]; first compound 0.8 µM)	relative viability ([2]; first compound 2.53 µM)	relative viability ([2]; first compound 8 µM)	relative viability ([3]; first compound 0.01 µM)	relative viability ([3]; first compound 0.1 µM)	relative viability ([3]; first compound 0.3162 µM)	relative viability ([3]; first compound 1 µM)	relative viability ([4]; first compound 0.08 µM)	relative viability ([4]; first compound 0.253 µM)	relative viability ([4]; first compound 0.8 µM)	relative viability ([4]; first compound 2.53 µM)	relative viability ([4]; first compound 8 µM)
NCI-H2342	1	1.12	1.03	1.03	0.781	0.81	0.692	0.656	0.826									
HCC-15	1.05	1.02	1.12	0.986	0.338	0.363	0.401	0.362	0.351	0.89	0.916	0.913	0.928	0.697	0.695	0.643	0.732	0.701
A-427	1.16	1.26	1.21	1.16	0.751	0.816	0.677	0.806	0.743	0.978	1.12	1.03	0.847	0.775	0.644	0.812	0.597	0.77
NCI-H23	1.09	1.07	1.03	0.983	0.336		0.361	0.547	0.373	0.576	0.489	0.515	0.502	0.455		0.478	0.568	0.454
NCI-H1734	0.762	0.681	0.869	0.915	0.587	0.653	0.69	0.703	0.561	0.665	0.769	0.717	0.632	0.405	0.531	0.435	0.496	0.413
NCI-H520	0.801	0.759	0.8	0.696	0.681	0.513	0.599	0.667	0.695		0.878	0.608	0.842	0.273	0.247	0.215	0.282	0.301
RERF-LC-KJ	0.904	0.961	0.903	0.908	0.902	0.938	0.815	0.911	0.783	0.945	0.91	0.829	0.899	0.597	0.511	0.525	0.493	0.501
NCI-H1915	1.13	1.12	1.15	1.2	0.3	0.306	0.302	0.311	0.292	0.904	1.1	0.915	1.07	0.939	0.879	0.868	0.912	0.808
NCI-H1666	0.932	1.02	1.01	0.961	0.772	0.814	0.804	0.86	0.764	1.12	0.971	1.12	0.744	0.354	0.405	0.39	0.405	0.355
HCC-366	0.928	1.2	0.979	0.939	0.264	0.36	0.325	0.344	0.287	0.745	0.373	0.517	0.561	0.128	0.157	0.117	0.181	0.194
SK-MES-1	1.01	1.2	0.965	0.939	0.537	0.63	0.589	0.553	0.537	1.11	1.05	1.08	1.11	0.359	0.363	0.304	0.33	0.342
NCI-H1993	0.782	0.696	0.767	0.715	0.609		0.569	0.471	0.486		0.922	0.866	0.93	0.822	0.716	0.868	0.781	0.773
NCI-H838	1.08	1.16	1.2	0.999	0.501	0.328	0.464	0.559	0.529	0.898	0.967	0.898	0.99	0.328	0.372	0.425	0.473	0.494
SK-LU-1	0.869	0.907	0.863	0.788	0.567	0.469	0.513	0.501	0.428	1.11	0.937	0.928	0.877	0.593	0.506	0.621	0.662	0.538
NCI-H1623	0.874	0.866	1.06	0.917														
Calu-6	0.962	0.904	1.02	0.885						1.02	0.854	0.912	0.75	0.929	0.91	0.971	0.922	0.882
LC-2-ad	0.869	0.989	1.04	1.01	0.848	0.936	0.895	0.917	0.855	0.404	0.45	0.423	0.364	0.612	0.518	0.413	0.511	0.427
CAL-12T	1.02	1.08	1.23	1.16	0.346	0.345	0.362	0.323	0.306	0.941	0.659	0.627	0.589	0.316	0.388	0.398	0.459	0.47
SW 1573	0.929	0.894	1.13	0.765	0.591	0.565	0.588	0.67	0.559	0.906	0.867	0.889	0.741	0.656	0.438	0.546	0.55	0.585

Reference: the supplement of paper PMC10307832
